According to ChEMBL document CHEMBL1909046, “DrugMatrix in vitro pharmacology data”:

Key:
[1] = DRUGMATRIX: Tumor Necrosis Factor (TNF), Non-Selective radioligand binding (ligand: [125I] TNF-alpha); format: cell membranes, Membrane; conditions: u-937; Not Active = under 50% inhibition at 10 µM
[2] = target: T1, Receptor-type tyrosine-protein phosphatase C (Homo sapiens, UniProt P08575); set-up: species or system Escherichia coli;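 further: inhibition of CD45 enzyme activity measured using DiFMUP as substrate; in other assays of this panel Not Active means under 50% inhibition at 10 µM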
T1 sequence (P08575 whole entry): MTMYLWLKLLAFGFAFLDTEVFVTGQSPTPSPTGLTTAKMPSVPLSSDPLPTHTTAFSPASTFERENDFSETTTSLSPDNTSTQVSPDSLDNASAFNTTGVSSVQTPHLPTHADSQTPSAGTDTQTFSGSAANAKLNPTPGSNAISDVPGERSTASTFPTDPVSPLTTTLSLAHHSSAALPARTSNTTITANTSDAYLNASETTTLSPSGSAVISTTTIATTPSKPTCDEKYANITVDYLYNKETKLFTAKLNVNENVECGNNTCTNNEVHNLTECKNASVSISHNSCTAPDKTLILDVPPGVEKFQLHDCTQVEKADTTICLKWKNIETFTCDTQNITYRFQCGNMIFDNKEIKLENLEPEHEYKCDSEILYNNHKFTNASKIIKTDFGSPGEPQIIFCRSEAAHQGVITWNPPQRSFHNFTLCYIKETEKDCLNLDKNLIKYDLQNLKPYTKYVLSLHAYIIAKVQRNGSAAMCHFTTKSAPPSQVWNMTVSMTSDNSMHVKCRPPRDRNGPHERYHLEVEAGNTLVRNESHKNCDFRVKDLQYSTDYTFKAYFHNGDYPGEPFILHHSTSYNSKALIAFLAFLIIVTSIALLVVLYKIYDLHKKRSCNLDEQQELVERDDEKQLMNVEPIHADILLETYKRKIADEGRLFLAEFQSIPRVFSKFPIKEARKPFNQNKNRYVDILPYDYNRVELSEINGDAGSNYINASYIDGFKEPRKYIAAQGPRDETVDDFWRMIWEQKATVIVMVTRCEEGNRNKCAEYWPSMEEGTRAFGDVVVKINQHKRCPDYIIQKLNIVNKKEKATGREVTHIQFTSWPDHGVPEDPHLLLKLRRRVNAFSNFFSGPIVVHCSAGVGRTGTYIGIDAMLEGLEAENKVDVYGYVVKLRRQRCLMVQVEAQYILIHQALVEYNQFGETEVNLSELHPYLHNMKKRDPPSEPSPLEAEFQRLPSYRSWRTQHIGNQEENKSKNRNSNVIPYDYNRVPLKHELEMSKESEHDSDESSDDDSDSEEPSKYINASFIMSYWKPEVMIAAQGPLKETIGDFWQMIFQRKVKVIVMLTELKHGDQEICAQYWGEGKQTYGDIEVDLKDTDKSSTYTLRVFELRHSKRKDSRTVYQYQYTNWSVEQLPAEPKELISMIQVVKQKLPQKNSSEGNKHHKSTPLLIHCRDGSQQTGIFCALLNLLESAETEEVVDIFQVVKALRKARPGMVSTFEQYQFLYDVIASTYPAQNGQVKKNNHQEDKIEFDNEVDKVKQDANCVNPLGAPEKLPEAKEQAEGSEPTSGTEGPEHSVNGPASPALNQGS

Endothelin-1 receptor = target: T2, Endothelin-1 receptor (Homo sapiens, UniProt P25101); format: cell membranes, Membrane; conditions: cho-k1; further: in other assays of this panel Not Active means under 50% inhibition at 10 µM
T2 sequence (P25101 whole entry): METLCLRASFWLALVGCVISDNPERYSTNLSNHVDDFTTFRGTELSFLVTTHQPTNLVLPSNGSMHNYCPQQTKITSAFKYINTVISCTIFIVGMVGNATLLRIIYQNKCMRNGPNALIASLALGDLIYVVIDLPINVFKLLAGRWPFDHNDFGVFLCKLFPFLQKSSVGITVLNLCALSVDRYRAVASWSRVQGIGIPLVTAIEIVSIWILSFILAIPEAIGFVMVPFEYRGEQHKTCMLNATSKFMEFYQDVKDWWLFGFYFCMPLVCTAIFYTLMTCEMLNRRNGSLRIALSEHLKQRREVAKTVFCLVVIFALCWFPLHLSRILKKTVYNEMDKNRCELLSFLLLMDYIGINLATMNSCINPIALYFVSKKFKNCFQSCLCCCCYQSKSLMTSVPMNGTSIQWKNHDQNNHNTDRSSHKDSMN

[3] = DRUGMATRIX: Glutamate, Kainate radioligand binding (ligand: [3H] Kainic acid); format: cell membranes, Rattus norvegicus, Wistar, Brain, Membrane; conditions: Not Active = under 50% inhibition at 10 µM
[4] = DRUGMATRIX: Sodium/nucleoside co-transporter radioligand binding (ligand: nitrobenzylthioinosine); format: cell membranes, Cavia porcellus, Dunkin-Hartley, Cerebral cortex, Membrane; conditions: Not Active = under 50% inhibition at 10 µM
[5] = target: T3, C-X-C chemokine receptor type 1 (Homo sapiens, UniProt P25024); further: in other assays of this panel Not Active means under 50% inhibition at 10 µM
T3 sequence (P25024 whole entry): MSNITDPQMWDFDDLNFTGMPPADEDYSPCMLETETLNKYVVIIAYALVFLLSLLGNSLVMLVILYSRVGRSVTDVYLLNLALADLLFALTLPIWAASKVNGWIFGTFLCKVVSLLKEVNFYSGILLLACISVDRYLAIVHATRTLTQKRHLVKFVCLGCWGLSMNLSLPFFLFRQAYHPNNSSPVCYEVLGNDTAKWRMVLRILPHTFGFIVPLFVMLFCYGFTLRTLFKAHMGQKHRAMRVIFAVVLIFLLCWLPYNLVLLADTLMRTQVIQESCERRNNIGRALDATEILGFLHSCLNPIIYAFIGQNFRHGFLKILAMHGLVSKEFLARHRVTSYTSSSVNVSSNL

[6] = DRUGMATRIX: Platelet-Derived Growth Factor (PDGF) radioligand binding (ligand: [125I] PDGF); format: cell-based; conditions: nih3t3; Not Active = under 50% inhibition at 10 µM
Vasopressin V1a receptor = Vasopressin V1a receptor (Homo sapiens, UniProt P37288); format: cell membranes, Membrane; conditions: hek293; further: in other assays of this panel Not Active means under 50% inhibition at 10 µM
Sequence of Vasopressin V1a receptor (P37288 whole entry): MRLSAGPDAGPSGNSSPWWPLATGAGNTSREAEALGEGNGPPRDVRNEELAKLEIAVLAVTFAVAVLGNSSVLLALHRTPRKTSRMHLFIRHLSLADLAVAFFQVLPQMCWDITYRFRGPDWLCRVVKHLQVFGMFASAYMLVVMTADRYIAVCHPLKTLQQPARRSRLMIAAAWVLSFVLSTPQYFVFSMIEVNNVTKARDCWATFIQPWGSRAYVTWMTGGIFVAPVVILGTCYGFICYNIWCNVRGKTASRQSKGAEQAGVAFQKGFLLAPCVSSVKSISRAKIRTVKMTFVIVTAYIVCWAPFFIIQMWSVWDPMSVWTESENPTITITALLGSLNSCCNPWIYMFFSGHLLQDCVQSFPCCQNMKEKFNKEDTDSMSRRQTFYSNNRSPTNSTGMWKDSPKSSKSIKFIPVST

[7] = DRUGMATRIX: Glutamate, NMDA, Phencyclidine radioligand binding (ligand: [3H] TCP); format: cell membranes, Rattus norvegicus, Wistar, Cerebral cortex, Membrane; conditions: Not Active = under 50% inhibition at 10 µM

CC(C)NCC(O)COc1ccc(CC(N)=O)cc1 (stereo unspecified) [ATENOLOL]
Not Active: IC50 [1] | Ki [1] | IC50 [2] | IC50 (Endothelin-1 receptor) | IC50 [3] | Ki [3] | IC50 [4] | Ki [4] | IC50 [5] | IC50 [6] | Ki [6] | IC50 (Vasopressin V1a receptor) | IC50 [7] | Ki [7]

OC[C@H]1O[C@@H]2O[C@H]3[C@H](O)[C@@H](O)[C@@H](O[C@H]4[C@H](O)[C@@H](O)[C@@H](O[C@H]5[C@H](O)[C@@H](O)[C@@H](O[C@H]6[C@H](O)[C@@H](O)[C@@H](O[C@H]7[C@H](O)[C@@H](O)[C@@H](O[C@H]8[C@H](O)[C@@H](O)[C@@H](O[C@H]1[C@H](O)[C@H]2O)O[C@@H]8CO)O[C@@H]7CO)O[C@@H]6CO)O[C@@H]5CO)O[C@@H]4CO)O[C@@H]3CO [BETADEX]
Not Active: IC50 [1] | Ki [1] | IC50 [2] | IC50 (Endothelin-1 receptor) | IC50 [3] | Ki [3] | IC50 [4] | Ki [4] | IC50 [5] | IC50 [6] | Ki [6] | IC50 (Vasopressin V1a receptor) | IC50 [7] | Ki [7]

COc1ccc(Cl)cc1C(=O)NCCc1ccc(S(=O)(=O)NC(=O)NC2CCCCC2)cc1 [GLYBURIDE]
Not Active: IC50 [1] | Ki [1] | IC50 [2] | IC50 (Endothelin-1 receptor) | IC50 [3] | Ki [3] | IC50 [4] | Ki [4] | IC50 [5] | IC50 [6] | Ki [6] | IC50 (Vasopressin V1a receptor) | IC50 [7] | Ki [7]

CCN1CCN(C(=O)N[C@@H](C(=O)N[C@@H]2C(=O)N3[C@@H]2SC(C)(C)[C@@H]3C(=O)O)c2ccccc2)C(=O)C1=O [PIPERACILLIN]
Not Active: IC50 [1] | Ki [1] | IC50 [2] | IC50 (Endothelin-1 receptor) | IC50 [3] | Ki [3] | IC50 [4] | Ki [4] | IC50 [5] | IC50 [6] | Ki [6] | IC50 (Vasopressin V1a receptor) | IC50 [7] | Ki [7]

CNC[C@H](O)c1ccc(O)c(O)c1 [EPINEPHRINE]
Not Active: IC50 [1] | Ki [1] | IC50 [2] | IC50 (Endothelin-1 receptor) | IC50 [3] | Ki [3] | IC50 [4] | Ki [4] | IC50 [5] | IC50 [6] | Ki [6] | IC50 (Vasopressin V1a receptor) | IC50 [7] | Ki [7]

CCC1(c2ccccc2)C(=O)NC(=O)NC1=O [PHENOBARBITAL]
Not Active: IC50 [1] | Ki [1] | IC50 [2] | IC50 (Endothelin-1 receptor) | IC50 [3] | Ki [3] | IC50 [4] | Ki [4] | IC50 [5] | IC50 [6] | Ki [6] | IC50 (Vasopressin V1a receptor) | IC50 [7] | Ki [7]

CC1(COc2ccc(CC3SC(=O)NC3=O)cc2)CCCCC1 (stereo unspecified) [CIGLITAZONE]
Not Active: IC50 [1] | Ki [1] | IC50 [2] | IC50 (Endothelin-1 receptor) | IC50 [3] | Ki [3] | IC50 [4] | Ki [4] | IC50 [5] | IC50 [6] | Ki [6] | IC50 (Vasopressin V1a receptor) | IC50 [7] | Ki [7]

O=C(O)CNCP(=O)(O)O [GLYPHOSATE]
Not Active: IC50 [1] | Ki [1] | IC50 [2] | IC50 (Endothelin-1 receptor) | IC50 [3] | Ki [3] | IC50 [4] | Ki [4] | IC50 [5] | IC50 [6] | Ki [6] | IC50 (Vasopressin V1a receptor) | IC50 [7] | Ki [7]

OC[C@H]1O[C@@H]2O[C@H]3[C@H](O)[C@@H](O)[C@@H](O[C@H]4[C@H](O)[C@@H](O)[C@@H](O[C@H]5[C@H](O)[C@@H](O)[C@@H](O[C@H]6[C@H](O)[C@@H](O)[C@@H](O[C@H]7[C@H](O)[C@@H](O)[C@@H](O[C@H]1[C@H](O)[C@H]2O)O[C@@H]7CO)O[C@@H]6CO)O[C@@H]5CO)O[C@@H]4CO)O[C@@H]3CO [ALFADEX]
Not Active: IC50 [1] | Ki [1] | IC50 [2] | IC50 (Endothelin-1 receptor) | IC50 [3] | Ki [3] | IC50 [4] | Ki [4] | IC50 [5] | IC50 [6] | Ki [6] | IC50 (Vasopressin V1a receptor) | IC50 [7] | Ki [7]

Nc1nc(F)nc2c1ncn2[C@@H]1O[C@H](CO)[C@@H](O)[C@@H]1O [FLUDARABINE]
Not Active: IC50 [1] | Ki [1] | IC50 [2] | IC50 (Endothelin-1 receptor) | IC50 [3] | Ki [3] | IC50 [4] | Ki [4] | IC50 [5] | IC50 [6] | Ki [6] | IC50 (Vasopressin V1a receptor) | IC50 [7] | Ki [7]

O=C(O)CO [GLYCOLIC ACID]
Not Active: IC50 [1] | Ki [1] | IC50 [2] | IC50 (Endothelin-1 receptor) | IC50 [3] | Ki [3] | IC50 [4] | Ki [4] | IC50 [5] | IC50 [6] | Ki [6] | IC50 (Vasopressin V1a receptor) | IC50 [7] | Ki [7]

O=C(NCCN1CCOCC1)c1ccc(Cl)cc1 [MOCLOBEMIDE]
Not Active: IC50 [1] | Ki [1] | IC50 [2] | IC50 (Endothelin-1 receptor) | IC50 [3] | Ki [3] | IC50 [4] | Ki [4] | IC50 [5] | IC50 [6] | Ki [6] | IC50 (Vasopressin V1a receptor) | IC50 [7] | Ki [7]

CARBOXYMETHYLCELLULOSE
Not Active: IC50 [1] | Ki [1] | IC50 [2] | Ki [2] | IC50 (Endothelin-1 receptor) | Ki (Endothelin-1 receptor) | IC50 [3] | Ki [3] | IC50 [4] | Ki [4] | IC50 [5] | Ki [5] | IC50 [6] | Ki [6] | IC50 (Vasopressin V1a receptor) | Ki (Vasopressin V1a receptor) | IC50 [7] | Ki [7]
